Measured values from patent US20110136839A1, “COMBINATION OF TWO ANALGESIC CHEMICALS” (priority 2009, published 2011).
“Also recorded” adds a separate entry of the source.

Key:
[1] = system: carrageenan-evoked hyperalgesia; assay: Carrageenan model of inflammation, thermal hyperalgesia (paw withdrawal latency); format: in vivo; details: rat; for reversal of the hypoalgesia by naloxone (opioid receptor antagonist): drug i.pl. at 1 hour, naloxone chloride or naloxone methiodide s.c. at 24 hours after carrageenan; for effect on carrageenan-evoked thermal hyperalgesia (paw withdrawal latency): intraplantar (local) injection in the inflamed paw 1 hour after carrageenan
Procedure: Rats received a subcutaneous injection of carrageenan (2% in saline, 100 μl) in the right hindpaw (intraplantar injection). Drug or vehicle were administered intraplantarly (i.pl., 50 μl) 1 hour after carrageenan injection and behavioral testing was performed at various time points. Nociceptive threshold responding to heat was determined as described before (Williams et al., 1990; Wisden et al., 1990: Jiang et al., 2006). Briefly, rat was placed in a device that held the body without restraining the head and legs. Noxious heat stimulation was carried out by immersing the hindpaw up to the ankle joint into a slowly stirred water bath at 47.5° C. while holding the animal with the device. […] Paw withdrawal latency for any test time point was measured twice at 3-min intervals and the mean values were calculated. Baseline latency was measured 10 min before drug or vehicle administration.
Effects of ketanserin on carrageenan-evoked hyperalgesia are illustrated in FIG. 1. Paw withdrawal latencies in seconds were measured in plantar test at the various time points. Data were normalized as percentage of pretreatment baseline (100%) and expressed as the mean ±SEM (standard error of mean).
Paw withdrawal latencies in seconds were determined in plantar test at the various time points. Data were normalized as percentage of pretreatment baseline (100%) and expressed as the mean ±SEM. Carrageenan and ketanserin (20 μg) were given i.pl. into unilateral hindpaw at 0 and 1 hour, respectively.
Paw withdrawal latencies in seconds were examined at the various time points. Data were normalized as percentage of pretreatment baseline (100%) and expressed as the mean ±SEM.
Carrageenan and […] (30 μg) were given i.pl. into unilateral hindpaw at 0 and 1 hour, respectively. Then naloxone chloride (5 mg/ml/kg) or naloxone methiodide (10 mg/ml/kg) or saline (1 ml/kg) was injected s.c. (subcutaneous injection) at 24hours after carrageenan. Paw withdrawal latencies in seconds were measured at the various time points.
Carrageenan (2%, 100 μl) was administered i.pl. at 0 hour and saline (50 μl, i.pl.) or ketanserin (2 μg, i.pl.)+WAY100635 (3 μg, i.pl.) at 1 hour. The results are illustrated in FIG. 5. Paw withdrawal latencies in seconds were examined at the various time points.
Carrageenan model—See those described before.

[2] = Animal study of blood pressure and heart rate; format: in vivo; details: subcutaneous injection at 0.5 mg/kg
[3] = system: carrageenan-evoked hyperalgesia; assay: Carrageenan model of inflammation, thermal hyperalgesia (paw withdrawal latency); format: in vivo; details: rat; for effect on thermal hyperalgesia in carrageenan model (paw withdrawal latency): subcutaneous (systemic) injection 1 hour after carrageenan; for effect on inflammatory hyperalgesia at higher dose (FIG. 7D): subcutaneous injection at 1 hour, doses higher than those in FIG. 7C
neuropathic pain (SNL) = assay: Neuropathic pain model (spinal nerve ligation), thermal threshold of the hindpaw; format: in vivo, rat
Procedure: PWL responding to heat stimulus ipsilaterally was measured.
Paw withdrawal latency was measured.

SMILES	reversal of the hypoalgesia by naloxone (opioid receptor antagonist) [1]	effect on carrageenan-evoked thermal hyperalgesia (paw withdrawal latency) [1]	blood pressure [2]	heart rate [2]	effect on thermal hyperalgesia in carrageenan model (paw withdrawal latency) [3]	effect on inflammatory hyperalgesia at higher dose (FIG. 7D) [3]	reversal of the hypoalgesia by naloxone (opioid receptor antagonist) ([1]; listed as Ketanserin)	tolerance (neuropathic pain (SNL); rat neuropathic pain model, thermal, s.c. injection)	thermal nociceptive threshold in Chung's model of neuropathic pain (paw withdrawal latency) (neuropathic pain (SNL); rat, s.c. starting at day 4 after spinal nerve ligation)
COc1ccccc1N1CCN(CCN(C(=O)C2CCCCC2)c2ccccn2)CC1 [WAY100635]	mediated by opioid analgesia mechanism	dose-dependently produces hypoalgesia	–	–	–	–	–	–	–
COc1cc2nc(N3CCN(C(=O)c4ccco4)CC3)nc(N)c2cc1OC [prazosin]	–	failed to alter the carrageenan-evoked response	–	–	–	–	–	–	–
CC(C)NCC(O)COc1cccc2ccccc12 (stereo not drawn) [propranolol]	abolished by i.p. naloxone	prolonging in paw withdrawal latency	does not alter	does not alter	produces significant inhibition on the nociceptive threshold	exerted stronger effect	–	–	–
O=C(c1ccc(F)cc1)C1CCN(CCn2c(=O)[nH]c3ccccc3c2=O)CC1 [ketanserin]	abolished by i.p. naloxone	dose-dependently produces hypoalgesia; also recorded: prolonging in paw withdrawal latency	does not alter	does not alter	produces significant inhibition on the nociceptive threshold	exerted stronger effect	mediated by opioid analgesia mechanism	without tolerance	dose-dependently inhibits
